Measured values reported in patent publication US7312240B2, “Conformationally constrained paclitaxel analogs and their use as anticancer and anti-Alzheimers agents” (Virginia Tech Intellectual Properties, Inc., priority 2004, dated 2007).

Legend:
purified tubulin = conditions: for EC50: read-out: ED50, Tb polymerization, Tubulin concentration 5 μM
[1] = test system: A2780 ovarian cancer cell line; test: Cytotoxicity against A2780 ovarian cancer cell line; conditions: for IC50(cp)/IC50(tx) A2780: ratio of compound IC50 to Taxol IC50, A2780; for Cytotoxicity (IC50, μg/ml) A2780: Example 2, A2780
PC-3 prostate cell line = test: Cytotoxicity against PC3 prostate cancer cell line; conditions: for IC50(cp)/IC50(tx) PC3: ratio of compound IC50 to Taxol IC50, PC3
GDP-tubulin = test: Critical concentration determination of tubulin assembly; assay type: biochemical; conditions: Taxoid concentration 10 μM; 37° C., PME buffer, 4% DMSO
Procedure: Critical Concentration Determination. The critical concentration of tubulin in the presence of 10 μM Taxol or Taxol analog was determined from assembly experiments performed at 37° C. with GDP-tubulin in PME buffer (100 mM PIPES, 2 mM MgSO4, 1 mM EGTA, pH=6.90) containing 4% DMSO. The extent of assembly was measured at different tubulin concentrations (0.5-6 μM) by light scattering (apparent absorption at 350 nm). Critical concentrations were calculated from the x-intercepts of plots of apparent A350 nm VS. tubulin concentration.

[2] = test system: Taxol binding site on crosslinked microtubules (polymerized tubulin); test: Competition binding with fluorescent Taxol N-AB-PT; conditions: for Inhibit binding F-Taxol: 10 μM Taxol or Taxoid, 5 μM N-AB-PT, 5 μM crosslinked microtubules; for competition experiment with fluorescent Taxol, compared with Taxol/PTX: N-AB-PT 5 μM, increasing competitor (0-30 μM), FIG. 14
Procedure: Competition Binding Experiments. The relative affinities of Taxol and derivatives for polymerized tubulin were assessed by competition assays. Crosslinked microtubules were prepared in glycerol assembly buffer (10 mM phosphate, 1 mM EGTA, 0.1 mM GTP 3.4 M glycerol, pH 6.9) as described by Andreu and Barasoain. Prior to use, the crosslinked microtubules were dialyzed against PME buffer for 16-18 hr. Crosslinked microtubules (5 μM) and the fluorescent Taxol derivative N-AB-PT (15, 5 μM) in PME buffer were incubated for 20 min at room temperature with 10 μM of Taxol or the Taxoid. The fluorescence emission intensity at 412 nm of each sample was recorded using a Jobin-Yvon Horiba Fluoromax-3 spectrofluorometer in a 2 mm×10 mm quartz cell (1ex=320 nm) and compared to the emission intensity of the system in the absence of competitor.
For the fall competition experiment, microtubules, N-AB-PT and varying concentrations of Taxol or 13b (0-30 μM) were treated in the same manner and their emission intensities were measured. The full competition experiment was repeated using pure tubulin assembled by N-AB-PT and identical results were obtained (data not shown).

## C=CC(=O)O[C@@]12CO[C@@H]1C[C@H](O)[C@@]1(C)C(=O)[C@H](OC(C)=O)C3=C(C)[C@@H](OC(=O)[C@H](O)[C@@H](NC(=O)c4ccccc4)c4ccccc4O/C=C\C)C[C@@](O)([C@@H](OC(=O)c4ccccc4)C12)C3(C)C (stereo partly shown) [Compound 12b]
Purified tubulin
  EC50: 1020 ± 370 nM
[1]; A2780
  cytotoxicity against A2780 in words, compared with PTX/Taxol or related analogs: over three orders of magnitude less cytotoxic
[1]
  IC50(cp)/IC50(tx) A2780: 1190
PC-3 prostate cell line
  cytotoxicity against PC3 in words, compared with PTX/Taxol: over two orders of magnitude less cytotoxic
  IC50(cp)/IC50(tx) PC3: 150

## CC(=O)O[C@H]1C(=O)[C@@]2(C)[C@@H]3[C@H](OC(=O)c4ccccc4)[C@]4(O)C[C@H](OC(=O)[C@H](O)[C@@H](NC(=O)c5ccccc5)c5ccccc5C/C=C\C(=O)O[C@]35CO[C@@H]5C[C@@H]2O)C(C)=C1C4(C)C [Compound 13a]
Purified tubulin
  EC50: 300 ± 90 nM
[1]; A2780
  cytotoxicity against A2780 in words, compared with PTX/Taxol or related analogs: approximately twenty times more potent than Taxol
  fold more potent than previous best analog 15: approximately 300 fold
[1]
  IC50(cp)/IC50(tx) A2780: 0.045
PC-3 prostate cell line
  cytotoxicity against PC3 in words, compared with PTX/Taxol: slightly more cytotoxic than Taxol
  IC50(cp)/IC50(tx) PC3: 0.69
GDP-tubulin
  Critical Tb conc.: 0.53 ± 0.07 µM
[2]
  Inhibit binding F-Taxol: 72%

## CC(=O)O[C@H]1C(=O)[C@@]2(C)[C@@H]3[C@H](OC(=O)c4ccccc4)[C@]4(O)C[C@H](OC(=O)[C@H](O)[C@@H](NC(=O)c5ccccc5)c5ccccc5OC/C=C/C(=O)O[C@]35CO[C@@H]5C[C@@H]2O)C(C)=C1C4(C)C [Compound 13b]
Purified tubulin
  EC50: 280 ± 110 nM
[1]; A2780
  cytotoxicity against A2780 in words, compared with PTX/Taxol or related analogs: equipotent with Taxol
[1]
  IC50(cp)/IC50(tx) A2780: 0.97
PC-3 prostate cell line
  cytotoxicity against PC3 in words, compared with PTX/Taxol: equipotent with Taxol
  IC50(cp)/IC50(tx) PC3: 1.0
GDP-tubulin
  Critical Tb conc.: 1.2 ± 0.24 µM
[2]
  Inhibit binding F-Taxol: 30%
  competition experiment with fluorescent Taxol, compared with Taxol/PTX: equal affinity

## C=CCOc1ccccc1C(NC(=O)c1ccccc1)C(O)C(=O)OC1CC2(O)C(OC(=O)c3ccccc3)C3C4(OC(=O)C=C)COC4CC(O)C3(C)C(=O)C(OC(C)=O)C(=C1C)C2(C)C (stereo not shown) [Compound 13c]
[1]; A2780
  cytotoxicity against A2780 in words, compared with PTX/Taxol or related analogs: almost inactive
PC-3 prostate cell line
  cytotoxicity against PC3 in words, compared with PTX/Taxol: almost inactive

## C=CCCC(=O)OC12COC1CC(O)C1(C)C(=O)C(OC(C)=O)C3=C(C)C(OC(=O)C(O)C(NC(=O)c4ccccc4)c4cccc(C=C)c4)CC(O)(C(OC(=O)c4ccccc4)C21)C3(C)C (stereo not shown) [Compound 13h]
[1]; A2780
  cytotoxicity against A2780 in words, compared with PTX/Taxol or related analogs: better cytotoxicites than their macrocyclic counter parts

## C=CCCC(=O)OC12COC1CC(O)C1(C)C(=O)C(OC(C)=O)C3=C(C)C(OC(=O)C(O)C(NC(=O)c4ccccc4)c4ccccc4OCC=C)CC(O)(C(OC(=O)c4ccccc4)C21)C3(C)C (stereo not shown) [Compound 13i]
[1]; A2780
  cytotoxicity against A2780 in words, compared with PTX/Taxol or related analogs: better cytotoxicites than their macrocyclic counter parts

## CC(=O)O[C@H]1C(=O)[C@@]2(C)[C@@H]3[C@H](OC(=O)c4ccccc4)[C@]4(O)C[C@H](OC(=O)[C@H](O)[C@@H](NC(=O)c5ccccc5)c5ccccc5/C=C/CC(=O)O[C@]35CO[C@@H]5C[C@@H]2O)C(C)=C1C4(C)C [Compound 15J]
Purified tubulin
  tubulin polymerization activity in words, compared to PTX: superior to PTX
[1]; A2780 cell line, cell line not named
  fold more cytotoxicity compared to PTX: 6 fold
PC-3 prostate cell line; PC3 cell line
  fold more cytotoxicity compared to PTX against PC3: 2 fold
[2]
  inhibition of binding of fluorescent taxol, compared with paclitaxel, in words: better than paclitaxel

## CC(=O)O[C@H]1C(=O)[C@@]2(C)[C@@H]3[C@H](OC(=O)c4ccccc4)[C@]4(O)C[C@H](OC(=O)[C@H](O)[C@@H](NC(=O)c5ccccc5)c5ccccc5OC/C=C/C(=O)O[C@]35CO[C@@H]5C[C@@H]2O)C(C)=C1C4(C)C [Compound 15b]
Purified tubulin
  tubulin polymerization activity in words, compared to PTX: superior to PTX
[1]; A2780
  cytotoxicity against A2780 in words, compared with PTX/Taxol or related analogs: more or less equal cytotoxicity
PC-3 prostate cell line
  cytotoxicity against PC3 in words, compared with PTX/Taxol: two fold more cytotoxicity than PTX
[2]
  inhibition of binding of fluorescent taxol, compared with paclitaxel, in words: better than paclitaxel
  competition experiment with fluorescent Taxol, compared with Taxol/PTX: identical in all respect to PTX

## CC(=O)O[C@H]1C(=O)[C@@]2(C)[C@@H]3[C@H](OC(=O)c4ccccc4)[C@]4(O)C[C@H](OC(=O)[C@H](O)[C@@H](NC(=O)c5ccccc5)c5ccccc5OCC/C=C/C(=O)O[C@]35CO[C@@H]5C[C@@H]2O)C(C)=C1C4(C)C [Compound 15c]
[1]; A2780
  cytotoxicity against A2780 in words, compared with PTX/Taxol or related analogs: more or less equal cytotoxicity
PC-3 prostate cell line
  cytotoxicity against PC3 in words, compared with PTX/Taxol: more or less equal cytotoxicity

## CC(=O)O[C@H]1C(=O)[C@@]2(C)[C@@H]3[C@H](OC(=O)c4ccccc4)[C@]4(O)C[C@H](OC(=O)[C@H](O)[C@@H](NC(=O)c5ccccc5)c5cccc(c5)OC/C=C\CCC(=O)O[C@]35CO[C@@H]5C[C@@H]2O)C(C)=C1C4(C)C [Compound 15e]
Purified tubulin
  tubulin polymerization activity in words, compared to PTX: comparable

## CC(=O)O[C@H]1C(=O)[C@@]2(C)[C@@H]3[C@H](OC(=O)c4ccccc4)[C@]4(O)C[C@H](OC(=O)[C@H](O)[C@@H](NC(=O)c5ccccc5)c5cccc(c5)/C=C\CCC(=O)O[C@]35CO[C@@H]5C[C@@H]2O)C(C)=C1C4(C)C [Compound 15f]
Purified tubulin
  tubulin polymerization activity in words, compared to PTX: comparable

## CC(=O)O[C@H]1C(=O)[C@@]2(C)[C@@H]3[C@H](OC(=O)c4ccccc4)[C@]4(O)C[C@H](OC(=O)[C@H](O)[C@@H](NC(=O)c5ccccc5)c5ccccc5OCCCC(=O)O[C@]35CO[C@@H]5C[C@@H]2O)C(C)=C1C4(C)C [Compound 16b]
Purified tubulin
  tubulin polymerization activity in words, compared to PTX: superior to PTX
[1]; A2780
  cytotoxicity against A2780 in words, compared with PTX/Taxol or related analogs: more or less equal cytotoxicity
PC-3 prostate cell line
  cytotoxicity against PC3 in words, compared with PTX/Taxol: more or less equal cytotoxicity
[2]
  inhibition of binding of fluorescent taxol, compared with paclitaxel, in words: better than paclitaxel

## CC(=O)O[C@H]1C(=O)[C@@]2(C)[C@@H]3[C@H](OC(=O)c4ccccc4)[C@]4(O)C[C@H](OC(=O)[C@H](O)[C@@H](NC(=O)c5ccccc5)c5ccccc5OCCCCC(=O)O[C@]35CO[C@@H]5C[C@@H]2O)C(C)=C1C4(C)C [Compound 16c]
[1]; A2780
  cytotoxicity against A2780 in words, compared with PTX/Taxol or related analogs: more or less equal cytotoxicity
PC-3 prostate cell line
  cytotoxicity against PC3 in words, compared with PTX/Taxol: more or less equal cytotoxicity

## CC(=O)O[C@H]1C(=O)[C@@]2(C)[C@@H]3[C@H](OC(=O)c4ccccc4)[C@]4(O)C[C@H](OC(=O)[C@H](O)[C@@H](NC(=O)c5ccccc5)c5cccc(c5)OCCCCCC(=O)O[C@]35CO[C@@H]5C[C@@H]2O)C(C)=C1C4(C)C [Compound 16e]
[1]; A2780
  cytotoxicity against A2780 in words, compared with PTX/Taxol or related analogs: much less than the unsaturated 15e and 15f

## CC(=O)O[C@H]1C(=O)[C@@]2(C)[C@@H]3[C@H](OC(=O)c4ccccc4)[C@]4(O)C[C@H](OC(=O)[C@H](O)[C@@H](NC(=O)c5ccccc5)c5cccc(c5)CCCCC(=O)O[C@]35CO[C@@H]5C[C@@H]2O)C(C)=C1C4(C)C [Compound 16f]
[1]; A2780
  cytotoxicity against A2780 in words, compared with PTX/Taxol or related analogs: much less than the unsaturated 15e and 15f

## O=C1/C=C/COc2cccc(c2)[C@H](NC(=O)c2ccccc2)[C@@H](O)C(=O)OC2CC3CC(CO1)C(OC(=O)c1ccccc1)C(C3)C2 (stereo partly shown) [Compound 20b]
[1]; A2780
  cytotoxicity against A2780 in words, compared with PTX/Taxol or related analogs: less active than 18 and 19
[1]
  Cytotoxicity (IC50, μg/ml) A2780: >100 µg/mL

## CC(=O)O[C@H]1C(=O)[C@@]2(C)[C@H]([C@H](OC(=O)c3ccccc3)[C@]3(O)C[C@H](OC(=O)[C@H](O)[C@@H](NC(=O)c4ccccc4)c4ccccc4)C(C)=C1C3(C)C)[C@]1(OC(C)=O)CO[C@@H]1C[C@@H]2O [Taxol, Paclitaxel]
Purified tubulin
  EC50: 500 ± 140 nM
[1]
  Cytotoxicity (IC50, μg/ml) A2780: 0.02 µg/mL
GDP-tubulin
  Critical Tb conc.: 1.8 ± 0.30 µM
[2]
  Inhibit binding F-Taxol: 26%
